Like-named read-outs stand apart in the source and are kept apart here.
Columns and labels:
[1] = test system: MRSA COL (MB5393); test: TarO Inhibitor/β-Lactam Synergy Assay (growth, OD600); assay type: cell-based; details: Staphylococcus aureus, read-out: MITC95 TarO inhibitor alone, Bacteria: SA_MB5393
[2] = test system: MRSA COL (MB5393); test: as above; assay type: cell-based, Staphylococcus aureus; details: for MITC95 TarO inhibitor + 4 μg/mL IPM; Bacteria: SA_MB5393: in combination with 4 μg/mL imipenem (IPM); for MITC95 TarO inhibitor + 8 μg/mL DCX; Bacteria: SA_MB5393: in combination with 8 μg/mL dicloxacillin (DCX)
Procedure, shortened: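 TarO inhibitors titrated 2-fold from 200 μM (2% DMSO) against MRSA COL, 5×10^5 CFU in CAMHB, with β-lactam fixed at clinical breakpoint (imipenem 4 μg/ml or dicloxacillin 8 μg/ml). Incubated 20 h at 37 °C without shaking; relative growth read as OD600.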

[3] = TarO inhibitor alone, >200 μM = 95% growth inhibition not achieved, 20 hours at 37° C.

SMILES	IC95 [1, 3] [µM]	MITC95 TarO inhibitor + 4 μg/mL IPM; Bacteria: SA_MB5393 [2] [µM]	MITC95 TarO inhibitor + 8 μg/mL DCX; Bacteria: SA_MB5393 [2] [µM]	IC95 ([1]; 20 h) [µM]
COc1cc(C(F)(F)F)cc([C@H]2OC(=O)N(C(=O)NCc3cncc4cccnc34)[C@H]2C)n1 [Example 60, (4S,5S)—N-((1,6-naphthyridin-8-yl)methyl)-5-(6-methoxy-4-(trifluoromethyl)pyridin-2-yl)-4-methyl-2-oxooxazolidine-3-carboxamide]	> 200	0.33	1.45	–
COc1cc(C(F)(F)F)cc([C@H]2OC(=O)N(C(=O)NCc3cncc4ccccc34)[C@H]2CO)n1 [Example 63, (4S,5S)-4-(hydroxymethyl)-N-(isoquinolin-4-ylmethyl)-5-(6-methoxy-4-(trifluoromethyl)-pyridin-2-yl)-2-oxooxazolidine-3-carboxamide]	–	0.37	1.13	> 200
COc1cc(C(F)(F)F)cc([C@H]2OC(=O)N(C(=O)NCc3cncc4cccnc34)[C@H]2CO)n1 [Example 64, (4S,5S)-4-(hydroxymethyl)-5-[6-methoxy-4-(trifluoromethyl)pyridin-2-yl]-N-(1,6-naphthyridin-8-ylmethyl)-2-oxo-1,3-oxazolidine-3-carboxamide]	> 200	0.94	4.38	–
C[C@H]1[C@@H](c2cc(C(F)(F)F)cc(C(F)(F)F)c2)OC(=O)N1C(=O)CCc1cncc2ccccc12 [Example 65, (4S,5R)-5-(3,5-bis(trifluoromethyl)phenyl)-3-(3-(isoquinolin-4-yl)propanoyl)-4-methyloxazolidin-2-one]	> 200	0.06	0.20	–
C[C@H]1[C@@H](c2cc(Cl)cc(C(F)(F)F)c2)OC(=O)N1C(=O)CCc1cccc2ccccc12 [Example 66, (4S,5R)-5-[3-chloro-5-(trifluoromethyl)phenyl]-4-methyl-3-(3-naphthalen-1-ylpropanoyl)-1,3-oxazolidin-2-one]	> 200	0.03	0.20	–
C[C@H]1[C@@H](c2cc(C(F)(F)F)cc(C(F)(F)F)c2)OC(=O)N1C(=O)CCc1cccc2ccccc12 [Example 67, (4S,5R)-5-[3,5-bis(trifluoromethyl)phenyl]-4-methyl-3-(3-naphthalen-1-ylpropanoyl)-1,3-oxazolidin-2-one]	> 200	0.01	–	–
C[C@H]1[C@@H](c2cc(C(F)(F)F)cc(C(F)(F)F)c2)OC(=O)N1C(=O)CCc1cccc2sccc12 [Example 68, (4S,5R)-3-[3-(1-benzothiophen-4-yl)propanoyl]-5-[3,5-bis(trifluoromethyl)phenyl]-4-methyl-1,3-oxazolidin-2-one]	> 200	0.01	0.20	–
C[C@H]1[C@@H](c2cccc(OC(F)(F)F)c2)OC(=O)N1C(=O)CCc1cccc2ccccc12 [Example 69, (4S,5R)-4-methyl-3-(3-naphthalen-1-ylpropanoyl)-5-[3-(trifluoromethoxy)phenyl]-1,3-oxazolidin-2-one]	> 200	0.11	0.39	–
C[C@H]1[C@@H](c2cc(F)cc(C(F)(F)F)c2)OC(=O)N1C(=O)CCc1cncc2ccccc12 [Example 70, (4S,5R)-5-[3-fluoro-5-(trifluoromethyl)phenyl]-3-(3-isoquinolin-4-ylpropanoyl)-4-methyl-1,3-oxazolidin-2-one]	> 200	0.19	0.91	–
C[C@H]1[C@@H](c2cc(C(F)(F)F)cc(C(F)(F)F)c2)OC(=O)N1C(=O)Cc1cccc2ccccc12 [Example 71, (4S,5R)-5-[3,5-bis(trifluoromethyl)phenyl]-4-methyl-3-(naphthalen-1-ylacetyl)-1,3-oxazolidin-2-one]	> 200	0.89	–	–
C[C@H]1[C@@H](c2cccc(OC(F)(F)F)c2)OC(=O)N1C(=O)CCc1cncc2ccccc12 [Example 72, (4S,5R)-3-(3-isoquinolin-4-ylpropanoyl)-4-methyl-5-[3-(trifluoromethoxy)phenyl]-1,3-oxazolidin-2-one]	> 200	0.21	1.56	–
C[C@H]1[C@@H](c2cc(C(F)(F)F)cc(C(F)(F)F)c2)OC(=O)N1C(=O)CCc1cccc2ncccc12 [Example 73, (4S,5R)-5-[3,5-bis(trifluoromethyl)phenyl]-4-methyl-3-(3-quinolin-5-ylpropanoyl)-1,3-oxazolidin-2-one]	> 200	0.56	6.25	–
Cc1cc([C@H]2OC(=O)N(C(=O)CCc3cccc4cnccc34)[C@H]2C)cc(C(F)(F)F)c1 [Example 74, (4S,5R)-3-(3-isoquinolin-5-ylpropanoyl)-4-methyl-5-[3-methyl-5-(trifluoromethyl)phenyl]-1,3-oxazolidin-2-one]	> 200	0.30	6.25	–
C[C@H]1[C@@H](c2cc(C(F)(F)F)cc(C(F)(F)F)c2)OC(=O)N1C(=O)CCc1cccc2ccncc12 [Example 75, (4S,5R)-5-[3,5-bis(trifluoromethyl)phenyl]-3-(3-isoquinolin-8-ylpropanoyl)-4-methyl-1,3-oxazolidin-2-one]	> 200	0.13	0.78	–
O=C(CCc1cncc2ccccc12)N1CC(c2cc(C(F)(F)F)cc(C(F)(F)F)c2)OC1=O (stereo not drawn) [Example 76, 5-[3,5-bis(trifluoromethyl)phenyl]-3-(3-isoquinolin-4-ylpropanoyl)-1,3-oxazolidin-2-one]	> 200	0.39	–	–
Cc1cc(C)cc([C@H]2OC(=O)N(C(=O)CCc3cncc4ccccc34)[C@H]2C)c1 [Example 77, (4S,5R)-5-(3,5-dimethylphenyl)-3-(3-isoquinolin-4-ylpropanoyl)-4-methyl-1,3-oxazolidin-2-one]	> 200	0.63	5.21	–
C[C@H]1[C@@H](c2cc(F)c(F)c(F)c2)OC(=O)N1C(=O)CCc1cncc2ccccc12 [Example 78, (4S,5R)-3-(3-isoquinolin-4-ylpropanoyl)-4-methyl-5-(3,4,5-trifluorophenyl)-1,3-oxazolidin-2-one]	> 200	1.17	–	–
Cc1cc(F)cc([C@H]2OC(=O)N(C(=O)CCc3cncc4ccccc34)[C@H]2C)c1 [Example 79, (4S,5R)-5-(3-fluoro-5-methylphenyl)-3-(3-isoquinolin-4-ylpropanoyl)-4-methyl-1,3-oxazolidin-2-one]	> 200	1.17	12.50	–
C[C@H]1[C@@H](c2cccc(F)c2)OC(=O)N1C(=O)CCc1cncc2ccccc12 [Example 80, (4S,5R)-5-(3-fluorophenyl)-3-(3-isoquinolin-4-ylpropanoyl)-4-methyl-1,3-oxazolidin-2-one]	> 200	4.69	–	–
COc1cccc([C@H]2OC(=O)N(C(=O)CCc3cccc4ccccc34)[C@H]2C)n1 [Example 81, (4S,5S)-5-(6-methoxypyridin-2-yl)-4-methyl-3-(3-naphthalen-1-ylpropanoyl)-1,3-oxazolidin-2-one]	> 200	0.75	100.00	–
C[C@H]1[C@@H](c2ccc(F)c(F)c2)OC(=O)N1C(=O)CCc1cncc2ccccc12 [Example 82, (4S,5R)-5-(3,4-difluorophenyl)-3-(3-isoquinolin-4-ylpropanoyl)-4-methyl-1,3-oxazolidin-2-one]	> 200	9.38	–	–
CC[C@H]1[C@@H](c2cc(C(F)(F)F)cc(C(F)(F)F)c2)OC(=O)N1C(=O)CCc1cncc2ccccc12 [Example 83, (4S,5R)-5-[3,5-bis(trifluoromethyl)phenyl]-4-ethyl-3-(3-isoquinolin-4-ylpropanoyl)-1,3-oxazolidin-2-one]	> 200	0.06	0.59	–
C[C@H]1[C@@H](c2cccc(Br)n2)OC(=O)N1C(=O)CCc1cccc2ccccc12 [Example 84, (4S,5S)-5-(6-bromopyridin-2-yl)-4-methyl-3-(3-naphthalen-1-ylpropanoyl)-1,3-oxazolidin-2-one]	> 200	1.56	100	–
O=C(CCc1cncc2ccccc12)N1C[C@H](c2cc(C(F)(F)F)cc(C(F)(F)F)c2)OC1=O [Example 85, (5S)-5-[3,5-bis(trifluoromethyl)phenyl]-3-(3-isoquinolin-4-ylpropanoyl)-1,3-oxazolidin-2-one]	> 200	0.55	25.00	–
O=C(CCc1cncc2ccccc12)N1CC(c2cccc(F)c2F)OC1=O (stereo not drawn) [Example 86, 5-(2,3-difluorophenyl)-3-(3-isoquinolin-4-ylpropanoyl)-1,3-oxazolidin-2-one]	> 200	1.41	8.33	–
